Experimental findings from ChEMBL document CHEMBL5512619, “Anticancer mechanism of coumarin-based derivatives” (Eur J Med Chem, 2024) are described below.

A value given as a limit tells only on which side of the number the result lay.

The subject of one test is HeLa. The test is described as follows: Antiproliferative activity against human HeLa cells assessed as inhibition of cell growth after 72 hrs by MTT assay. Format: functional, cell-based.
Test [1] is described as follows: Antiproliferative activity against human Lu1 cells assessed as inhibition of cell growth after 72 hrs by MTT assay. Type of test: functional, cell-based. Particulars: Lu1, 72 h. On the technique in general: Tetrazolium assays rely on reduction of a dye to a coloured formazan, in cell work by metabolically active cells.
The next test concerns MCF7. Nature of the test: Antiproliferative activity against human MCF7 cells assessed as inhibition of cell growth after 72 hrs by MTT assay. Format: functional, cell-based. Particulars: MCF7, 72 h.
The test system of a further test is SK-MEL-2. Nature of the test: Antiproliferative activity against human SK-MEL-2 cells assessed as inhibition of cell growth after 72 hrs by MTT assay. Format: functional, cell-based. The conditions noted are these: SK-MEL-2, 72 h.
The next test deals with HepG2. The test is described as follows: Antiproliferative activity against human HepG2 cells assessed as inhibition of cell growth after 72 hrs by MTT assay. Format: functional, cell-based. The conditions noted are these: HepG2, 72 h.
Another test concerns the target Carbonic anhydrase 1 (Homo sapiens, UniProt P00915). Nature of the test: Binding affinity to human CA1 assessed as inhibition constant incubated for 10 mins by phenol red dye based stopped flow CO2 hydration assay.
In the next test the target is Carbonic anhydrase 2 (Homo sapiens, UniProt P00918). The test is described as follows: Binding affinity to human CA2 assessed as inhibition constant incubated for 10 mins by phenol red dye based stopped flow CO2 hydration assay.
In the next test the test system is A549. The test is described as follows: Antiproliferative activity against human A549 cells incubated 24 hrs by MTT assay. Format: functional, cell-based. The conditions noted are these: A549, 24 h.
A further test relates to MDA-MB-231. Nature of the test: Antiproliferative activity against human MDA-MB-231 cells incubated 24 hrs by MTT assay. Type of test: functional, cell-based. The conditions noted are these: MDA-MB-231, 24 h.

Carbonic anhydrase 1, sequence (P00915 whole entry): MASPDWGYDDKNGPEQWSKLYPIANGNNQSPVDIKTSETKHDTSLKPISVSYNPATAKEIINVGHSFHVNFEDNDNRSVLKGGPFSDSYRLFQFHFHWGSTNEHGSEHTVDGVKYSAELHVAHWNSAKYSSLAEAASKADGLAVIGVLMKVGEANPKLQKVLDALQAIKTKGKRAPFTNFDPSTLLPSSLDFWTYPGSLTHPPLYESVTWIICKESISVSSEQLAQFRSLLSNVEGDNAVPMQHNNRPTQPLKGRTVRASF

Usually IC50 stands for the concentration that gives 50% inhibition. Regarding `CC(=O)OC[C@H]1O[C@@H](NC(=S)N/N=C(\C)c2cc3ccccc3oc2=O)[C@H](OC(C)=O)[C@@H](OC(C)=O)[C@H]1OC(C)=O`, the 50% inhibitory concentration (IC50) (in the test with HeLa; in test [1]; in the test on MCF7; in the test on SK-MEL-2; in the test with HepG2) was 1280 nM throughout.

Broadly, the Ki is a measure of affinity in units of concentration, obtained from inhibition or displacement. `O=C(Nc1ccc2c(c1)C=CS(=O)(=O)O2)c1ccc(Cl)c(S(=O)(=O)N2CCOCC2)c1`: the Ki on Carbonic anhydrase 1 and at Carbonic anhydrase 2 was 99.4 nM throughout.

Consider `O=c1oc2ccccc2cc1-c1cc(-c2cccc(Br)c2)nc(Cc2ccc(F)cc2)n1`, for which the IC50 in the test with A549 and in the test on MDA-MB-231 was below 10000 nM throughout.

As for `CC(=O)OC[C@H]1O[C@@H](NC(=S)N/N=C(\C)c2cc3cc(Cl)ccc3oc2=O)[C@H](OC(C)=O)[C@@H](OC(C)=O)[C@H]1OC(C)=O`, the concentration for half-maximal inhibition (IC50) (in the test on HeLa; in [1]; with MCF7; in the test with SK-MEL-2; with HepG2) was 1280 nM each time.

For `COc1ccc(C(=O)Nc2ccc3c(c2)C=CS(=O)(=O)O3)cc1S(=O)(=O)N1CCCC1`, the inhibition constant Ki on Carbonic anhydrase 1 and at Carbonic anhydrase 2 was 99.4 nM in each case.

For `CC(=O)OC[C@H]1O[C@@H](NC(=S)N/N=C(\C)c2cc3cc(C)ccc3oc2=O)[C@H](OC(C)=O)[C@@H](OC(C)=O)[C@H]1OC(C)=O`, the IC50 (in the test with HeLa; in test [1]; in the test on MCF7; with SK-MEL-2; with HepG2) was 1280 nM each time.

Turning to `O=c1oc2ccccc2cc1-c1cc(-c2ccccc2Br)nc(Cc2ccc(F)cc2)n1`, the IC50 in the test on A549 and in the test with MDA-MB-231 was below 10000 nM each time.

As for `CC(=O)OC[C@H]1O[C@@H](NC(=S)N/N=C(\C)c2cc3ccc(C)cc3oc2=O)[C@H](OC(C)=O)[C@@H](OC(C)=O)[C@H]1OC(C)=O`, the IC50 (in the test on HeLa; in test [1]; with MCF7; in the test with SK-MEL-2; in the test on HepG2) was 1280 nM in each case.

`COc1cccc2cc(/C(C)=N/NC(=S)N[C@@H]3O[C@H](COC(C)=O)[C@H](OC(C)=O)[C@H](OC(C)=O)[C@H]3OC(C)=O)c(=O)oc12`: the IC50 (in the test with HeLa; in [1]; in the test on MCF7; with SK-MEL-2; with HepG2) was 1280 nM in each case.

For the compound `O=C(Nc1ccc2c(c1)C=CS(=O)(=O)O2)c1cccc(S(=O)(=O)N2CCOCC2)c1`, the Ki on Carbonic anhydrase 1 and on Carbonic anhydrase 2 was 99.4 nM throughout.

On to `O=c1oc2ccccc2cc1-c1cc(-c2ccc(Br)cc2)nc(Cc2ccc(F)cc2)n1`, for which the IC50 in the test on A549 and in the test with MDA-MB-231 was below 10000 nM each time.

For the compound `CC(=O)OC[C@H]1O[C@@H](NC(=S)N/N=C(\C)c2c(O)c3ccccc3oc2=O)[C@H](OC(C)=O)[C@@H](OC(C)=O)[C@H]1OC(C)=O`, the half-inhibitory concentration (IC50) (in the test with HeLa; in [1]; in the test with MCF7; in the test with SK-MEL-2; with HepG2) was 1280 nM in each case.

Turning to `COc1ccc(C(=O)Nc2ccc3c(c2)C=CS(=O)(=O)O3)cc1S(=O)(=O)N1CCSCC1`, the inhibitory constant (Ki) on Carbonic anhydrase 1 and on Carbonic anhydrase 2 was 99.4 nM throughout.

For the compound `Cc1ccc(C(=O)Nc2ccc3c(c2)C=CS(=O)(=O)O3)cc1S(=O)(=O)N1CCCCC1`, the inhibitory constant (Ki) on Carbonic anhydrase 1 and at Carbonic anhydrase 2 was 99.4 nM each time.

Consider `COc1ccccc1-c1cc(-c2cc3ccccc3oc2=O)nc(Cc2ccc(F)cc2)n1`, for which the half-inhibitory concentration (IC50) in the test on A549 and in the test with MDA-MB-231 was below 10000 nM in each case.

`O=c1oc2ccccc2cc1-c1cc(-c2ccccc2Cl)nc(Cc2ccc(F)cc2)n1`: the IC50 with A549 and in the test on MDA-MB-231 was below 10000 nM each time.

As for `CC(=O)OC[C@H]1O[C@@H](NC(=S)N/N=C(\C)c2c(C)c3ccc(O)cc3oc2=O)[C@H](OC(C)=O)[C@@H](OC(C)=O)[C@H]1OC(C)=O`, the half-maximal inhibitory concentration (IC50) (in the test on HeLa; in [1]; in the test on MCF7; with SK-MEL-2; with HepG2) was 1280 nM in each case.

With `CC(=O)OC[C@H]1O[C@@H](NC(=S)N/N=C(\C)c2cc3cc(Br)ccc3oc2=O)[C@H](OC(C)=O)[C@@H](OC(C)=O)[C@H]1OC(C)=O`, the IC50 (in the test on HeLa; in test [1]; in the test with MCF7; in the test on SK-MEL-2; in the test on HepG2) was 1280 nM each time.

Take `Cc1ccccc1-c1cc(-c2cc3ccccc3oc2=O)nc(Cc2ccc(F)cc2)n1`: the IC50 in the test on A549 and with MDA-MB-231 was below 10000 nM each time.

`COc1ccc(C(=O)Nc2ccc3c(c2)C=CS(=O)(=O)O3)cc1S(=O)(=O)N1C[C@@H](C)O[C@@H](C)C1`: the inhibition constant Ki at Carbonic anhydrase 1 and on Carbonic anhydrase 2 was 99.4 nM each time.

Turning to `Cc1cccc(-c2cc(-c3cc4ccccc4oc3=O)nc(Cc3ccc(F)cc3)n2)c1`, the 50% inhibitory concentration (IC50) in the test with A549 and in the test on MDA-MB-231 was below 10000 nM each time.

For `O=c1oc2ccccc2cc1-c1cc(-c2cccc(Cl)c2)nc(Cc2ccc(F)cc2)n1`, the IC50 with A549 and with MDA-MB-231 was below 10000 nM in each case.

As for `COc1ccc(C(=O)Nc2ccc3c(c2)C=CS(=O)(=O)O3)cc1S(=O)(=O)N1CCOCC1`, the inhibition constant (Ki) on Carbonic anhydrase 1 and at Carbonic anhydrase 2 was 99.4 nM throughout.

Regarding `C[C@@H]1CN(S(=O)(=O)c2cc(C(=O)Nc3ccc4c(c3)C=CS(=O)(=O)O4)ccc2Cl)C[C@H](C)S1`, the inhibition constant Ki on Carbonic anhydrase 1 and on Carbonic anhydrase 2 was 99.4 nM each time.

Consider `Cc1ccc(C(=O)Nc2ccc3c(c2)C=CS(=O)(=O)O3)cc1S(=O)(=O)N1CCCC1`, for which the Ki on Carbonic anhydrase 1 and on Carbonic anhydrase 2 was 99.4 nM each time.

Consider `O=c1oc2ccccc2cc1-c1cc(-c2ccc(Cl)cc2)nc(Cc2ccc(F)cc2)n1`, for which the IC50 in the test with A549 and in the test on MDA-MB-231 was below 10000 nM in each case.

`O=C(Nc1ccc2c(c1)C=CS(=O)(=O)O2)c1ccc(F)c(S(=O)(=O)N2CCCC2)c1`: the inhibitory constant (Ki) on Carbonic anhydrase 1 and on Carbonic anhydrase 2 was 99.4 nM each time.

As to `C[C@@H]1CN(S(=O)(=O)c2cccc(C(=O)Nc3ccc4c(c3)C=CS(=O)(=O)O4)c2)C[C@H](C)O1`, the Ki at Carbonic anhydrase 1 and on Carbonic anhydrase 2 was 99.4 nM each time.

Regarding `C[C@@H]1CN(S(=O)(=O)c2cc(C(=O)Nc3ccc4c(c3)C=CS(=O)(=O)O4)ccc2F)C[C@H](C)O1`, the Ki on Carbonic anhydrase 1 and at Carbonic anhydrase 2 was 99.4 nM throughout.

With `O=C(Nc1ccc2c(c1)C=CS(=O)(=O)O2)c1ccc(F)c(S(=O)(=O)N2CCOCC2)c1`, the Ki at Carbonic anhydrase 1 and at Carbonic anhydrase 2 was 99.4 nM each time.

`COc1cccc(-c2cc(-c3cc4ccccc4oc3=O)nc(Cc3ccc(F)cc3)n2)c1`: the half-maximal inhibitory concentration (IC50) in the test with A549 and in the test on MDA-MB-231 was below 10000 nM in each case.

Turning to `O=C(Nc1ccc2c(c1)C=CS(=O)(=O)O2)c1cccc(S(=O)(=O)N2CCCC2)c1`, the Ki on Carbonic anhydrase 1 and at Carbonic anhydrase 2 was 99.4 nM each time.

For `COc1ccc(-c2cc(-c3cc4ccccc4oc3=O)nc(Cc3ccc(F)cc3)n2)cc1`, the IC50 in the test with A549 and in the test on MDA-MB-231 was below 10000 nM each time.

With `Cc1ccc(-c2cc(-c3cc4ccccc4oc3=O)nc(Cc3ccc(F)cc3)n2)cc1`, the IC50 in the test on A549 and in the test on MDA-MB-231 was below 10000 nM throughout.

For the compound `O=C(Nc1ccc2c(c1)C=CS(=O)(=O)O2)c1ccc(Cl)c(S(=O)(=O)N2CCCCC2)c1`, the Ki at Carbonic anhydrase 1 and on Carbonic anhydrase 2 was 99.4 nM throughout.
